Laboratory results: PubChem BioAssay AID2060483 (Molecular Pharmacology Branch, DTP, NCI, 2025)
pIC50: −log10 of the molar value.

Test system: K24384-001-R-PDC complex spheroids, viability
Experiment: Anticancer human tumor K24384-001-R-PDC patient-derived pancreatic adenocarcinoma cell line growth inhibition [GQUAD]
Conditions: for pIC50: curve of first compound; for viability, T/C: stronger effect = lower value
How it was run: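 Viability of tumor cells grown as complex spheroids with endothelial and stromal cells, exposed to drug combinations. Top concentration at or near clinical Cmax (else 10 microM), diluted in half-log increments.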

[1] = second compound 0.0316 µM, first compound 0.0316 µM
[2] = second compound 0.0316 µM, first compound 0.1 µM
[3] = second compound 0.0316 µM, first compound 0.316 µM
[4] = second compound 0.0316 µM, first compound 1 µM
[5] = second compound 0.0316 µM, first compound 3.16 µM
[6] = second compound 0.0316 µM, first compound 10 µM
[7] = second compound 0.1 µM, first compound 0.0316 µM
[8] = second compound 0.1 µM, first compound 0.1 µM
[9] = second compound 0.1 µM, first compound 0.316 µM
[10] = second compound 0.1 µM, first compound 1 µM
[11] = second compound 0.1 µM, first compound 3.16 µM
[12] = second compound 0.1 µM, first compound 10 µM
[13] = second compound 0.316 µM, first compound 0.0316 µM
[14] = second compound 0.316 µM, first compound 0.1 µM
[15] = second compound 0.316 µM, first compound 0.316 µM
[16] = second compound 0.316 µM, first compound 1 µM
[17] = second compound 0.316 µM, first compound 3.16 µM
[18] = second compound 0.316 µM, first compound 10 µM
[19] = second compound 1 µM, first compound 0.0316 µM
[20] = second compound 1 µM, first compound 0.1 µM
[21] = second compound 1 µM, first compound 0.316 µM
[22] = second compound 1 µM, first compound 1 µM
[23] = second compound 1 µM, first compound 3.16 µM
[24] = second compound 1 µM, first compound 10 µM
[25] = second compound 3.16 µM, first compound 0.0316 µM
[26] = second compound 3.16 µM, first compound 0.1 µM
[27] = second compound 3.16 µM, first compound 0.316 µM
[28] = second compound 3.16 µM, first compound 1 µM
[29] = second compound 3.16 µM, first compound 3.16 µM
[30] = second compound 3.16 µM, first compound 10 µM
[31] = second compound 10 µM, first compound 0.0316 µM
[32] = second compound 10 µM, first compound 0.1 µM
[33] = second compound 10 µM, first compound 0.316 µM
[34] = second compound 10 µM, first compound 1 µM
[35] = second compound 10 µM, first compound 3.16 µM
[36] = second compound 10 µM, first compound 10 µM
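Note: spheroids exposed to compounds for seven days.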

CC(C)n1c(=O)n(C)c2cnc3cc(F)c(-c4ccc(OCCCN5CCCCC5)nc4)cc3c21 + Cc1cnc(CNC(=O)c2c(=O)c3ccc(N4CCCN(C)CC4)nc3n3c2sc2ccccc23)cn1
pIC50 (second compound 0.0316 µM): < 5.00 | pIC50 (second compound 0.1 µM): < 5.00 | pIC50 (second compound 0.316 µM): < 5.00 | pIC50 (second compound 1 µM): 5.73 | pIC50 (second compound 3.16 µM): > 7.50 | pIC50 (second compound 10 µM): > 7.50 | viability, T/C [1]: 68.1% | viability, T/C [2]: 77% | viability, T/C [3]: 76.9% | viability, T/C [4]: 92.9% | viability, T/C [5]: 99.9% | viability, T/C [6]: 87.7% | viability, T/C [7]: 70.1% | viability, T/C [8]: 84.2% | viability, T/C [9]: 67.1% | viability, T/C [10]: 80.6% | viability, T/C [11]: 83.5% | viability, T/C [12]: 69.3% | viability, T/C [13]: 60.3% | viability, T/C [14]: 81.4% | viability, T/C [15]: 55% | viability, T/C [16]: 62% | viability, T/C [17]: 71.2% | viability, T/C [18]: 52% | viability, T/C [19]: 48.1% | viability, T/C [20]: 52% | viability, T/C [21]: 57.7% | viability, T/C [22]: 51.4% | viability, T/C [23]: 54.6% | viability, T/C [24]: 41.5% | viability, T/C [25]: 44.4% | viability, T/C [26]: 46% | viability, T/C [27]: 46.2% | viability, T/C [28]: 58.4% | viability, T/C [29]: 42% | viability, T/C [30]: 49.7% | viability, T/C [31]: 39% | viability, T/C [32]: 19.4% | viability, T/C [33]: 39.9% | viability, T/C [34]: 46.8% | viability, T/C [35]: 32.8% | viability, T/C [36]: 0.33%

CC1COCCN1c1cc(-c2ccnn2C)c2ccnc(-c3ccn[nH]3)c2n1 (stereo not given) + Cc1cnc(CNC(=O)c2c(=O)c3ccc(N4CCCN(C)CC4)nc3n3c2sc2ccccc23)cn1
pIC50 (second compound 0.0316 µM): 7.38 | pIC50 (second compound 0.1 µM): > 7.50 | pIC50 (second compound 0.316 µM): > 7.50 | pIC50 (second compound 1 µM): > 7.50 | pIC50 (second compound 3.16 µM): > 7.50 | pIC50 (second compound 10 µM): > 7.50 | viability, T/C [1]: 53.5% | viability, T/C [2]: 37.8% | viability, T/C [3]: 40% | viability, T/C [4]: 32% | viability, T/C [5]: 34.6% | viability, T/C [6]: 29.9% | viability, T/C [7]: 48.8% | viability, T/C [8]: 51.1% | viability, T/C [9]: 34% | viability, T/C [10]: 41.5% | viability, T/C [11]: 32.2% | viability, T/C [12]: 24.4% | viability, T/C [13]: 44.8% | viability, T/C [14]: 46.4% | viability, T/C [15]: 39.4% | viability, T/C [16]: 34.7% | viability, T/C [17]: 32.8% | viability, T/C [18]: 22.7% | viability, T/C [19]: 42.9% | viability, T/C [20]: 35.2% | viability, T/C [21]: 34% | viability, T/C [22]: 37.4% | viability, T/C [23]: 25.3% | viability, T/C [24]: 22.9% | viability, T/C [25]: 32.8% | viability, T/C [26]: 37.4% | viability, T/C [27]: 31.4% | viability, T/C [28]: 26.8% | viability, T/C [29]: 21.7% | viability, T/C [30]: 19.2% | viability, T/C [31]: 25.4% | viability, T/C [32]: 21.5% | viability, T/C [33]: 20.9% | viability, T/C [34]: 24.8% | viability, T/C [35]: 10.3% | viability, T/C [36]: 8.1%

CC1COCCN1c1cc(C2(O)CC3CCC(C2)O3)c2cnn(-c3ccn[nH]3)c2n1 (stereo not given) + Cc1cnc(CNC(=O)c2c(=O)c3ccc(N4CCCN(C)CC4)nc3n3c2sc2ccccc23)cn1
pIC50 (second compound 0.0316 µM): 7.48 | pIC50 (second compound 0.1 µM): > 7.50 | pIC50 (second compound 0.316 µM): > 7.50 | pIC50 (second compound 1 µM): > 7.50 | pIC50 (second compound 3.16 µM): > 7.50 | pIC50 (second compound 10 µM): > 7.50 | viability, T/C [1]: 51.9% | viability, T/C [2]: 39.6% | viability, T/C [3]: 33.7% | viability, T/C [4]: 25.1% | viability, T/C [5]: 26.4% | viability, T/C [6]: 12.3% | viability, T/C [7]: 43.4% | viability, T/C [8]: 37.5% | viability, T/C [9]: 31.1% | viability, T/C [10]: 32.4% | viability, T/C [11]: 26.3% | viability, T/C [12]: 10.8% | viability, T/C [13]: 40.6% | viability, T/C [14]: 37.8% | viability, T/C [15]: 31% | viability, T/C [16]: 31.9% | viability, T/C [17]: 23.6% | viability, T/C [18]: 10.8% | viability, T/C [19]: 39.2% | viability, T/C [20]: 42.2% | viability, T/C [21]: 31.2% | viability, T/C [22]: 26.7% | viability, T/C [23]: 18.1% | viability, T/C [24]: 8.33% | viability, T/C [25]: 42.2% | viability, T/C [26]: 35.7% | viability, T/C [27]: 29.5% | viability, T/C [28]: 27.2% | viability, T/C [29]: 16.4% | viability, T/C [30]: 8.63% | viability, T/C [31]: 27.5% | viability, T/C [32]: 20.4% | viability, T/C [33]: 23.7% | viability, T/C [34]: 19.4% | viability, T/C [35]: 6.65% | viability, T/C [36]: 0.55%

CC1COCCN1c1cc(C2(S(C)(=N)=O)CC2)nc(-c2ccnc3[nH]ccc23)n1 (stereo not given) + Cc1cnc(CNC(=O)c2c(=O)c3ccc(N4CCCN(C)CC4)nc3n3c2sc2ccccc23)cn1
pIC50 (second compound 0.0316 µM): 5.60 | pIC50 (second compound 0.1 µM): 5.66 | pIC50 (second compound 0.316 µM): 5.28 | pIC50 (second compound 1 µM): > 7.50 | pIC50 (second compound 3.16 µM): > 7.50 | pIC50 (second compound 10 µM): > 7.50 | viability, T/C [1]: 85.6% | viability, T/C [2]: 100% | viability, T/C [3]: 83.5% | viability, T/C [4]: 55.7% | viability, T/C [5]: 55% | viability, T/C [6]: 30.4% | viability, T/C [7]: 69% | viability, T/C [8]: 90.7% | viability, T/C [9]: 64.5% | viability, T/C [10]: 56.8% | viability, T/C [11]: 50.5% | viability, T/C [12]: 39.6% | viability, T/C [13]: 57.8% | viability, T/C [14]: 64.2% | viability, T/C [15]: 56.1% | viability, T/C [16]: 52.3% | viability, T/C [17]: 59.8% | viability, T/C [18]: 40.1% | viability, T/C [19]: 41.5% | viability, T/C [20]: 45.2% | viability, T/C [21]: 45.3% | viability, T/C [22]: 42.7% | viability, T/C [23]: 43.7% | viability, T/C [24]: 32.5% | viability, T/C [25]: 41.9% | viability, T/C [26]: 50.4% | viability, T/C [27]: 37.8% | viability, T/C [28]: 43.1% | viability, T/C [29]: 37.6% | viability, T/C [30]: 25.8% | viability, T/C [31]: 34.5% | viability, T/C [32]: 23.2% | viability, T/C [33]: 31.9% | viability, T/C [34]: 35.2% | viability, T/C [35]: 35.5% | viability, T/C [36]: 21.6%

COc1ccc([C@@H](O)c2cc(-c3ncnc4cc(N5CCOCC5)ccc34)c(F)cc2Cl)nn1 + Cc1cnc(CNC(=O)c2c(=O)c3ccc(N4CCCN(C)CC4)nc3n3c2sc2ccccc23)cn1
pIC50 (second compound 0.0316 µM): 5.91 | pIC50 (second compound 0.1 µM): 6.30 | pIC50 (second compound 0.316 µM): 6.92 | pIC50 (second compound 1 µM): > 7.50 | pIC50 (second compound 3.16 µM): > 7.50 | pIC50 (second compound 10 µM): > 7.50 | viability, T/C [1]: 89.9% | viability, T/C [2]: 81.5% | viability, T/C [3]: 70.8% | viability, T/C [4]: 45.9% | viability, T/C [5]: 43.8% | viability, T/C [6]: 23.6% | viability, T/C [7]: 57.2% | viability, T/C [8]: 68.7% | viability, T/C [9]: 46.5% | viability, T/C [10]: 42.3% | viability, T/C [11]: 39.1% | viability, T/C [12]: 17.6% | viability, T/C [13]: 48.6% | viability, T/C [14]: 57.6% | viability, T/C [15]: 43.1% | viability, T/C [16]: 41.5% | viability, T/C [17]: 34% | viability, T/C [18]: 12.6% | viability, T/C [19]: 40.5% | viability, T/C [20]: 59.9% | viability, T/C [21]: 35.4% | viability, T/C [22]: 34.1% | viability, T/C [23]: 21.7% | viability, T/C [24]: 12.7% | viability, T/C [25]: 36.7% | viability, T/C [26]: 41.9% | viability, T/C [27]: 33.4% | viability, T/C [28]: 29.8% | viability, T/C [29]: 24.6% | viability, T/C [30]: 10.2% | viability, T/C [31]: 28.1% | viability, T/C [32]: 29.9% | viability, T/C [33]: 27.4% | viability, T/C [34]: 27.4% | viability, T/C [35]: 16.8% | viability, T/C [36]: 0.52%
